PubChem BioAssay (NCI)
“And” between values parts separate entries of the source, which are not always exact repeats. Identical values can stand only once.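 Step 1: Grow cells in 96-well plates. Step 2: Expose to compound for 48 hours at 5 concentrations. Step 3: Interpolate endpoints linearly; if unreached, use highest concentration. Here, GI50 denotes the concentration required for 50% inhibition of growth. TGI: total growth inhibition.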

Key:
Assay in all cases: DTP human tumour cell line panel, 48 h
RPMI-8226 leukemia = test system: RPMI-8226 leukemia
HOP-62 NSCLC = test system: HOP-62 NSCLC
SF-295 CNS = test system: SF-295 CNS
NCI-H226 lung = test system: NCI-H226 lung
SN12C renal = test system: SN12C renal
CCRF-CEM leukemia = test system: CCRF-CEM leukemia
HCT-15 colon = test system: HCT-15 colon
DU-145 prostate = test system: DU-145 prostate
SF-268 CNS = test system: SF-268 CNS
RXF 393 renal = test system: RXF 393 renal

| SMILES | GI50 (RPMI-8226 leukemia) [µM] | TGI (RPMI-8226 leukemia) | GI50 (HOP-62 NSCLC) [µM] | TGI (HOP-62 NSCLC) | GI50 (SF-295 CNS) [µM] | TGI (SF-295 CNS) | GI50 (NCI-H226 lung) [µM] | TGI (NCI-H226 lung) [µM] | GI50 (SN12C renal) [µM] | TGI (SN12C renal) | GI50 (CCRF-CEM leukemia) [µM] | TGI (CCRF-CEM leukemia) | GI50 (HCT-15 colon) [µM] | TGI (HCT-15 colon) | GI50 (DU-145 prostate) [µM] | TGI (DU-145 prostate) | GI50 (SF-268 CNS) [µM] | TGI (SF-268 CNS) | GI50 (RXF 393 renal) [µM] | TGI (RXF 393 renal) |
| --- | --- | --- | --- | --- | --- | --- | --- | --- | --- | --- | --- | --- | --- | --- | --- | --- | --- | --- | --- | --- |
| CC(C)(C)CC(C)(C)c1ccc(O)c(Cc2ccc(Cl)cc2Cl)c1 | 1.24 | 3.66 µM | 1.42 | 2.72 µM | 1.62 | 2.98 µM | 1.53 | 2.87 | 1.47 | 2.79 µM | 1.53 | 3.19 µM | 1.74 | 3.18 µM | 1.69 | 3.05 µM | 1.6 | 2.95 µM | 1.16 | 2.41 µM |
| COC(=O)c1cc2oc(/C=C3/SC(=S)N(N)C3=O)cc2n1Cc1ccccc1 | > 27.5 | > 100 µM | 6.59 | 25.6 µM | 1.76 | 6.02 µM | 13.5 | 26.8 | 12 | > 43.3 µM | > 100 | > 100 µM | 7.65 | > 29.9 µM | 3.59 | 15.7 µM | 2.22 | 7.73 µM | 2.01 | 12.2 µM |
| COc1ccc(C(=NN=C(N)N)c2ccc(OC)cc2)cc1 | 5.46 | 21.8 µM | 3.9 | 15.5 µM | 2.72 | 11.2 µM | 4.37 | 18.3 | 3.15 | 15.5 µM | 5.18 | 42.6 µM | 4.73 | 19.9 µM | 2.6 | 10.8 µM | 2.34 | 12 µM | 1.81 | 4.82 µM |
| Cn1cc(C2=C(c3cn(-c4ccccc4)c4ccccc34)C(=O)NC2=O)c2ccccc21 | 12.1 | > 25 µM | > 25 | > 25 µM | 13.3 | > 25 µM | > 25 | > 25 | 15.8 | > 25 µM | 15.2 | > 25 µM | 10.7 | > 25 µM | > 25 | > 25 µM | 20.4 | > 25 µM | 10.2 | > 25 µM |
| COc1c(/C=C/C=O)cc2c(c1OC)OCO2 |  | 43.4 µM |  | 73.7 µM |  | 52.1 µM |  | 70 |  | 59.3 µM |  | > 100 µM |  | 40.2 µM |  | > 100 µM |  | > 100 µM |  | > 100 µM |
| N/N=C(\c1nc2ccc([N+](=O)[O-])cc2[nH]c1=O)C(O)c1ccc(Cl)c(Cl)c1 (centres undefined) |  | > 100 µM |  | > 100 µM |  | > 100 µM |  | > 100 |  | > 100 µM |  | > 100 µM |  | > 100 µM |  | > 100 µM |  | > 100 µM |  | > 100 µM |
| CC(C)[C@@](O)(c1ccc2cc(OC(F)F)c(OC(F)F)cc2c1)c1cn[nH]n1 | 17.3 | 61.4 µM | 15.3 | 30.7 µM | 14.2 | 29.7 µM | 22.3 | 58.2 | 17.1 | 35.2 µM | 19.2 | 55.3 µM | 15.3 | 37.4 µM | 16.7 | 39.2 µM | 18.6 | 49.4 µM | 15.4 | 29.8 µM |
| CCCCNS(=O)(=O)c1n[nH]c(=O)[nH]c1=O |  | > 100 µM |  | > 100 µM |  | > 100 µM |  | > 100 |  | > 100 µM |  | 35.7 µM |  | > 100 µM |  | > 100 µM |  | > 100 µM |  | > 100 µM |
| COc1cc(/C=C2\CCC/C(=C\c3ccc(O)c(OC)c3)C2=O)ccc1O | 0.397 | 10.8 µM and 3.59 µM | 1.79 | 8.32 µM and 3.95 µM | 1.71 | 9.16 µM and 5.15 µM |  | 16.8 | 1.87 | 6.33 µM and 5.01 µM | 0.366 | 12.2 µM and > 100 µM | 1.49 | 8.44 µM and 3.36 µM | 1.72 | 13.5 µM and 5.95 µM | 1.8 | 6.91 µM and 8.2 µM | 1.43 | 6.17 µM and 2.94 µM |
| O=c1cnnc(N/N=C/c2ccccc2O)[nH]1 | 1.23 | > 72.9 µM | 6.01 | 53.7 µM | 3.11 | > 100 µM | 1.63 | 51.7 | 4.21 | > 100 µM | 0.396 | > 39.9 µM | 0.539 | > 100 µM | 6.58 | > 100 µM | 3.45 | > 87.3 µM | 5.16 | 37.7 µM |
| O=C(C=P(c1ccccc1)(c1ccccc1)c1ccccc1)CCl | 0.965 | 4.45 µM | 2.62 | 7.93 µM | 2.3 | 7.62 µM | 1.31 | 2.97 | 1.46 | 4.53 µM | 0.826 | 7.41 µM | 0.881 | 4.21 µM | 1.13 | 2.38 µM | 1.75 | 4.01 µM | 1.01 | 2.41 µM |
| O=c1c2ccccc2c(/C=N\NC2=NCCN2)c2oc3ccccc3n12 | 28.6 | > 100 µM | 28.6 | > 100 µM | 13.5 | 27.8 µM | 19.2 | 48.2 | 11.2 | 27.7 µM | 32.2 | > 100 µM | 14.7 | 62.1 µM | 15 | 34.7 µM | 57.8 | > 100 µM | 21.4 | 40.2 µM |
| COC(=O)[C@]12CC[C@@H](C)[C@H](C)[C@@H]1C1=CC[C@@H]3[C@@]4(C)C[C@@H](OC(=O)/C=C/c5ccccc5)[C@H](O)[C@@](C)(CO)[C@@H]4[C@H](O)C[C@@]3(C)[C@]1(C)CC2 | 2.54 | 7.86 µM | 1.91 | 5.43 µM | 2.27 | 5.75 µM | 2.56 | 9.15 | 1.83 | 3.6 µM | 2.88 | 10.4 µM | 1.93 | 4.02 µM | 2.39 | 5.83 µM | 2.62 | 10.4 µM | 1.74 | 3.84 µM |
